Experiments:
Assay in all cases: relative viability (nuclei count vs DMSO), 5 days (fraction); higher = more cells survive
[1] = compound: CN(C/C=C/C1=CC=C(C=C1)Cl)CC2=CC=CC=C2N(CCO)S(=O)(=O)C3=CC=C(C=C3)OC [KN-93] + CS(=O)(=O)CCNCc1ccc(-c2ccc3ncnc(Nc4ccc(OCc5cccc(F)c5)c(Cl)c4)c3c2)o1 [Lapatinib] (partner 2 µM)
How it was run: (§1)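 Medians of duplicate plates are given as relative viability. That measure is the nuclei count in treated wells divided by the count in vehicle wells. Counts were taken on 4× images of lung cancer cell lines in 1536-well plates, 5 days after pin-tool dosing the day after seeding with one drug alone or a fixed anchor-drug dose plus five library-drug doses (not always all listed) in √10 steps.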

[2] = compound: CN(C/C=C/C1=CC=C(C=C1)Cl)CC2=CC=CC=C2N(CCO)S(=O)(=O)C3=CC=C(C=C3)OC [KN-93] + Cc1nc(Nc2ncc(C(=O)Nc3c(C)cccc3Cl)s2)cc(N2CCN(CCO)CC2)n1 [Dasatinib] (partner 0.075 µM)
How it was run: as §1

[3] = compound: CN(C/C=C/C1=CC=C(C=C1)Cl)CC2=CC=CC=C2N(CCO)S(=O)(=O)C3=CC=C(C=C3)OC [KN-93] + N=C(N)NC(=N)NCCc1ccccc1 [Phenformin] (partner 250 µM)
How it was run: as §1

[4] = compound: CN(C/C=C/C1=CC=C(C=C1)Cl)CC2=CC=CC=C2N(CCO)S(=O)(=O)C3=CC=C(C=C3)OC [KN-93] + CS(=O)(=O)N1CCN(Cc2cc3nc(-c4cccc5[nH]ncc45)nc(N4CCOCC4)c3s2)CC1 [Pictilisib] (partner 1 µM)
How it was run: as §1

[5] = compound: CN(C/C=C/C1=CC=C(C=C1)Cl)CC2=CC=CC=C2N(CCO)S(=O)(=O)C3=CC=C(C=C3)OC [KN-93] + Cc1nc(NC(=O)N2CCC[C@H]2C(N)=O)sc1-c1ccnc(C(C)(C)C(F)(F)F)c1 [Alpelisib] (partner 2 µM)
How it was run: as §1

## PC-3 [JPC-3]
[1]; first compound 0.08 µM
  relative viability: 0.462
[1]; first compound 0.253 µM
  relative viability: 0.382
[1]; first compound 2.53 µM
  relative viability: 0.439
[1]; first compound 8 µM
  relative viability: 0.428
[2]; first compound 0.08 µM
  relative viability: 0.941
[2]; first compound 0.253 µM
  relative viability: 1.11
[2]; first compound 2.53 µM
  relative viability: 1.03
[2]; first compound 8 µM
  relative viability: 0.673
[3]; first compound 0.08 µM
  relative viability: 0.437
[3]; first compound 0.253 µM
  relative viability: 0.46
[3]; first compound 2.53 µM
  relative viability: 0.494
[3]; first compound 8 µM
  relative viability: 0.441
[4]; first compound 0.08 µM
  relative viability: 0.727
[4]; first compound 0.253 µM
  relative viability: 0.708
[4]; first compound 2.53 µM
  relative viability: 0.759
[4]; first compound 8 µM
  relative viability: 0.645
[5]; first compound 0.08 µM
  relative viability: 0.999
[5]; first compound 0.253 µM
  relative viability: 1.04
[5]; first compound 2.53 µM
  relative viability: 1.01
[5]; first compound 8 µM
  relative viability: 0.94

## PC-14
[1]; first compound 0.08 µM
  relative viability: 0.305
[1]; first compound 0.253 µM
  relative viability: 0.227
[1]; first compound 2.53 µM
  relative viability: 0.318
[1]; first compound 8 µM
  relative viability: 0.307
[2]; first compound 0.08 µM
  relative viability: 0.335
[2]; first compound 0.253 µM
  relative viability: 0.18
[2]; first compound 2.53 µM
  relative viability: 0.198
[2]; first compound 8 µM
  relative viability: 0.0533
[3]; first compound 0.08 µM
  relative viability: 0.593
[3]; first compound 0.253 µM
  relative viability: 0.685
[3]; first compound 2.53 µM
  relative viability: 0.596
[3]; first compound 8 µM
  relative viability: 0.547
[4]; first compound 0.253 µM
  relative viability: 0.531
[4]; first compound 2.53 µM
  relative viability: 0.618
[4]; first compound 8 µM
  relative viability: 0.349
[5]; first compound 0.08 µM
  relative viability: 0.753
[5]; first compound 0.253 µM
  relative viability: 1.01
[5]; first compound 2.53 µM
  relative viability: 1.14
[5]; first compound 8 µM
  relative viability: 0.839

## RERF-LC-KJ
[1]; first compound 0.08 µM
  relative viability: 0.803
[1]; first compound 0.253 µM
  relative viability: 0.81
[1]; first compound 2.53 µM
  relative viability: 1.01
[1]; first compound 8 µM
  relative viability: 0.776
[2]; first compound 0.08 µM
  relative viability: 0.664
[2]; first compound 0.253 µM
  relative viability: 0.788
[2]; first compound 2.53 µM
  relative viability: 0.672
[2]; first compound 8 µM
  relative viability: 0.277
[3]; first compound 0.08 µM
  relative viability: 0.365
[3]; first compound 0.253 µM
  relative viability: 0.409
[3]; first compound 2.53 µM
  relative viability: 0.462
[3]; first compound 8 µM
  relative viability: 0.307
[4]; first compound 0.08 µM
  relative viability: 0.582
[4]; first compound 0.253 µM
  relative viability: 0.486
[4]; first compound 2.53 µM
  relative viability: 0.598
[4]; first compound 8 µM
  relative viability: 0.332
[5]; first compound 0.08 µM
  relative viability: 0.682
[5]; first compound 0.253 µM
  relative viability: 0.754
[5]; first compound 2.53 µM
  relative viability: 0.766
[5]; first compound 8 µM
  relative viability: 0.634

## SK-LU-1
[1]; first compound 0.08 µM
  relative viability: 0.644
[1]; first compound 0.253 µM
  relative viability: 1.15
[1]; first compound 2.53 µM
  relative viability: 0.972
[1]; first compound 8 µM
  relative viability: 0.56
[2]; first compound 0.08 µM
  relative viability: 0.192
[2]; first compound 0.253 µM
  relative viability: 0.179
[2]; first compound 2.53 µM
  relative viability: 0.188
[2]; first compound 8 µM
  relative viability: 0.17
[3]; first compound 0.08 µM
  relative viability: 0.494
[3]; first compound 0.253 µM
  relative viability: 0.811
[3]; first compound 2.53 µM
  relative viability: 0.475
[3]; first compound 8 µM
  relative viability: 0.391
[4]; first compound 0.08 µM
  relative viability: 0.5
[4]; first compound 0.253 µM
  relative viability: 0.591
[4]; first compound 2.53 µM
  relative viability: 0.536
[4]; first compound 8 µM
  relative viability: 0.357
[5]; first compound 0.08 µM
  relative viability: 1.19
[5]; first compound 0.253 µM
  relative viability: 1.47
[5]; first compound 2.53 µM
  relative viability: 0.926
[5]; first compound 8 µM
  relative viability: 0.471

## SK-MES-1
[1]; first compound 0.08 µM
  relative viability: 0.464
[1]; first compound 0.253 µM
  relative viability: 0.425
[1]; first compound 2.53 µM
  relative viability: 0.514
[1]; first compound 8 µM
  relative viability: 0.425
[2]; first compound 0.08 µM
  relative viability: 0.42
[2]; first compound 0.253 µM
  relative viability: 0.318
[2]; first compound 2.53 µM
  relative viability: 0.367
[2]; first compound 8 µM
  relative viability: 0.261
[3]; first compound 0.08 µM
  relative viability: 0.554
[3]; first compound 0.253 µM
  relative viability: 0.751
[3]; first compound 2.53 µM
  relative viability: 0.699
[3]; first compound 8 µM
  relative viability: 0.571
[4]; first compound 0.08 µM
  relative viability: 0.332
[4]; first compound 0.253 µM
  relative viability: 0.327
[4]; first compound 2.53 µM
  relative viability: 0.419
[4]; first compound 8 µM
  relative viability: 0.253
[5]; first compound 0.08 µM
  relative viability: 0.737
[5]; first compound 0.253 µM
  relative viability: 0.977
[5]; first compound 2.53 µM
  relative viability: 0.864
[5]; first compound 8 µM
  relative viability: 0.862

## SW 1573
[1]; first compound 0.08 µM
  relative viability: 1.31
[1]; first compound 0.253 µM
  relative viability: 1.11
[1]; first compound 2.53 µM
  relative viability: 1.14
[1]; first compound 8 µM
  relative viability: 0.919
[2]; first compound 0.08 µM
  relative viability: 0.551
[2]; first compound 0.253 µM
  relative viability: 0.492
[2]; first compound 2.53 µM
  relative viability: 0.474
[2]; first compound 8 µM
  relative viability: 0.236
[3]; first compound 0.08 µM
  relative viability: 0.319
[3]; first compound 0.253 µM
  relative viability: 0.389
[3]; first compound 2.53 µM
  relative viability: 0.454
[3]; first compound 8 µM
  relative viability: 0.275
[4]; first compound 0.253 µM
  relative viability: 0.446
[4]; first compound 2.53 µM
  relative viability: 0.493
[4]; first compound 8 µM
  relative viability: 0.199
[5]; first compound 0.08 µM
  relative viability: 0.87
[5]; first compound 0.253 µM
  relative viability: 0.805
[5]; first compound 2.53 µM
  relative viability: 0.933
[5]; first compound 8 µM
  relative viability: 0.632

## UMC-11
[1]; first compound 0.08 µM
  relative viability: 0.839
[1]; first compound 0.253 µM
  relative viability: 1.12
[1]; first compound 2.53 µM
  relative viability: 1.32
[1]; first compound 8 µM
  relative viability: 0.626
[2]; first compound 0.08 µM
  relative viability: 0.407
[2]; first compound 0.253 µM
  relative viability: 0.502
[2]; first compound 2.53 µM
  relative viability: 0.785
[2]; first compound 8 µM
  relative viability: 0.38
[3]; first compound 0.08 µM
  relative viability: 0.381
[3]; first compound 0.253 µM
  relative viability: 0.365
[3]; first compound 2.53 µM
  relative viability: 0.355
[3]; first compound 8 µM
  relative viability: 0.277
[4]; first compound 0.253 µM
  relative viability: 0.976
[4]; first compound 2.53 µM
  relative viability: 0.962
[4]; first compound 8 µM
  relative viability: 0.278
[5]; first compound 0.253 µM
  relative viability: 1.24
[5]; first compound 2.53 µM
  relative viability: 1.27
[5]; first compound 8 µM
  relative viability: 0.613

Source: the supplement of paper PMC10307832
